{"source": "patent US20220260566A1", "about": "“IMMUNITY MECHANISM AND THERAPEUTIC DRUG FOR GASTROINTESTINAL DISEASES” (GUANGZHOU WOMEN AND CHILDREN'S MEDICAL CENTER, priority 2018, published 2022)", "key": {"activated ATF2 and CREB": {"test_system": "activated ATF2 and CREB", "experiment": "Immunofluorescence of colonic mucosa: activated ATF2 and CREB co-expressed with CD39", "format": "in vivo, human", "details": "children, after vs before dipyridamole treatment", "experimental": "[Worded in the source for another target; this target is reported under the same test.] Use formalin-fixed and paraffin-embedded paraffin blocks to prepare 3 um tissue sections. After deparaffinization, blocking antibodies (PBS containing 5% normal donkey or goat serum and 0.3% Triton X-100) are incubated for 1 hour at room temperature, and washed with PBS Then incubate the primary antibody (CD39, CD41, […]-ATF2 or […]-CREB) overnight in a 4 C dark humidified box. Then, after washing with PBS, incubate the secondary antibodies (goat anti-mouse IgG1 combined with AF488 and goat anti-rabbit IgG combined with Cy3) for 1 hour at room temperature, and then incubate the anti-quencher containing DAPI. Then, use the Lycra automatic inverted fluorescence microscope to observe and take pictures (20×0.75), and use the […] image analysis software to process the brightness, luminosity, contrast and color balance of the image to restore the image as much as possible. For each observation condition, 4-5 areas in each mucosal section were randomly selected for observation, and the CD41 aggregation (fluorescence diameter greater than 7 μm) was measured and counted using the card X image analysis software."}, "[1]": {"test_system": "CD68+ macrophages and TNF-α in the colonic mucosa", "experiment": "Immunofluorescence of colonic mucosa before and after treatment: CD68+ macrophages, TNF-α, PDE4B", "format": "in vivo, human", "details": "for PDE4B: summary of immunological results after treatment; for macrophage invasion in colonic mucosa: children with colitis or IBD, after vs before methylprednisolone or anti-TNF-α, FIG. 6C"}, "CD39": {"test_system": "CD39", "experiment": "Immunofluorescence of colonic mucosa before and after treatment: CD39 expression", "format": "in vivo, human", "experimental": "(§1) Use formalin-fixed and paraffin-embedded paraffin blocks to prepare 3 um tissue sections. After deparaffinization, blocking antibodies (PBS containing 5% normal donkey or goat serum and 0.3% Triton X-100) are incubated for 1 hour at room temperature, and washed with PBS Then incubate the primary antibody (CD39, CD41, pT71-ATF2 or pS133-CREB) overnight in a 4 C dark humidified box. Then, after washing with PBS, incubate the secondary antibodies (goat anti-mouse IgG1 combined with AF488 and goat anti-rabbit IgG combined with Cy3) for 1 hour at room temperature, and then incubate the anti-quencher containing DAPI. Then, use the Lycra automatic inverted fluorescence microscope to observe and take pictures (20×0.75), and use the Lycra X image analysis software to process the brightness, luminosity, contrast and color balance of the image to restore the image as much as possible. For each observation condition, 4-5 areas in each mucosal section were randomly selected for observation, and the CD41 aggregation (fluorescence diameter greater than 7 μm) was measured and counted using the card X image analysis software."}, "[2]": {"test_system": "subjects with colitis confirmed by endoscopy and subjects with undefined IBD (IBDU)", "experiment": "Clinical trial of dipyridamole in 9 children with endoscopy-confirmed colitis or undefined IBD (Table 6)", "format": "in vivo, human", "from_the_text": "The inventors also conducted clinical trial studies in subjects with colitis confirmed by endoscopy and subjects with undefined IBD (IBDU) (Table 6).\nIn Table 6, PLT stands for platelet count, HGB stands for hemoglobin, and ALB stands for albumin."}, "[3]": {"test_system": "DSS-induced acute colitis", "experiment": "DSS-induced acute colitis model", "format": "in vivo, C57BL/6J mice", "experimental": "Male C57BL/6J mice (20-22 g), six to eight weeks old, were purchased from Guangzhou University of Traditional Chinese Medicine. The mice were given regular food and water before the experiment. Weight-matched mice were used in all studies Animal research was approved by the Animal Care and Utilization Committee of Guangzhou Medical University (permit number: 2019-471) and was conducted in accordance with institutional guidelines.\nThe control mice were given regular food and water. The mice were monitored daily and if the weight loss exceeded 20%, they were euthanized.\nFor hematoxylin and eosin (H&E) staining, the colon was fixed in 4% paraformaldehyde (PFA) for 24 hours and embedded in paraffin. Prepare sections (3 μm) and deparaffinize before staining\nTo detect platelet aggregation in colon slices, the tissue was fixed in 4% PFA for 24 hours, cryoprotected in 30% sucrose for 48 hours, and then embedded in an Optimal Cutting Temperature (O.C.T.) compound. The frozen sections (5 μm) were washed, blocked with 10% goat serum, and incubated with anti-mouse CD41-FITC (133903, BioLegend, CA, USA) at 4° C. overnight.\nAfter washing with PBS to remove unbound antibodies, the sections were fixed with […] anti-fading fixation medium (H-1200, Vector Laboratories, CA, USA) with DAPI for nuclear staining The immunofluorescence staining and image processing were performed as described above. Platelet aggregates are defined as CD41+ clusters (diameter >7 μm). Leica X image analysis software (Leica, Hamburg, Germany) and ImageJ software (National Institutes of Health, Maryland, USA) were used to count and analyze the number of CD41+ clusters per square millimeter. For each colon section, platelet aggregation in 5 randomly selected areas was recorded.\nIn order to analyze the expression of cytokines, the residual mesenteric fat in the colon was removed, weighed and dispersed in a single cell suspension with 1 mL of PBS. After centrifugation at 1000×g for 10 minutes at 4° C., the supernatant was taken to determine the concentration of TNF-α, IL-1β and IL-6 by ELISA."}, "[4]": {"test_system": "TNF-α in monocytes and macrophages", "experiment": "TNF-α expression in monocytes and macrophages in vitro", "format": "cell-based", "details": "in vitro and in vivo"}, "children with colitis": {"test_system": "children with colitis", "experiment": "Clinical trial of dipyridamole in children with colitis (Table 5, 23 patients)", "format": "in vivo, human", "from_the_text": "In the following, it is investigated whether the cAMP activation pathway regulates CD39 expression in T cells. […] The clinical trial was approved by the Ethical Review Committee of Guangzhou Women and Children's Medical Center and registered in the China Clinical Trial Registration Center (ChiCTR1800019803). All patients or family members signed an informed consent form."}, "[5]": {"test_system": "CD39 in colonic intraepithelial T cells", "experiment": "CD39 expression of immune cells in DSS colitis model (flow cytometry)", "format": "in vivo, mice", "experimental": "From the second day of treatment, DSS was added to drinking water (2.5%) for 7 days. The control mice were given regular food and water. In order to analyze colon immune cells, the present invention harvests the colon and removes excess fat. After washing with ice-cold PBS, the colon was cut into pieces approximately 0.3-0.5 cm in length. After gentle rotation in the dissociation solution (HBSS without Ca/Mg, with 5 mM EDTA and 2% FBS) at 37° C. for 40 minutes, the intraepithelial lymphocytes (IEL) were pelleted, washed and resuspended in staining buffer (PBS 2% FBS). The remaining undigested colon tissue samples were gently rotated in the digestion solution (RPMI1640 containing 2% FBS, 2 mg/mL collagenase IV, 0.4 U/mL dispase and 1 μg/mL DNase) at 37° C. for 45 minutes. Pellet lamina propria lymphocytes (LPL), wash and resuspend in staining buffer. T cell plates (CD45-APC-Cy7, CD3-BV711, […]-Cy7, CD8-BV785, γδT-BV421 and CD4-APC) or myeloid plates (MHC II-BV550, CD11b-BV510 and CD39-PE-Cy7) were stained on ice for 30 minutes, and then analyzed on a FACSAria SORP flow cytometer (BD Science)."}, "[6]": {"test_system": "platelet aggregation (CD41 clusters) in the colonic mucosa", "experiment": "Immunofluorescence of colonic mucosa before and after treatment: platelet aggregation (CD41 clusters)", "format": "in vivo, human", "details": "children, after vs before dipyridamole treatment", "experimental": "as §1"}, "[7]": {"test_system": "CD39 expression in CD8+ T cells", "experiment": "CD39 expression during CD8+ T cell activation", "format": "cell-based", "details": "dose-dependent manner"}, "[8]": {"test_system": "HEK 293T cells stably transfected with the cAMP reporter gene GloSensor-22F cAMP plasmid", "experiment": "cAMP reporter assay (GloSensor-22F cAMP plasmid)", "format": "cell-based", "details": "HEK 293T reporter cells; 3 independent experiments; forskolin as positive control", "from_the_text": "FIG. 4: Highly inflammatory macrophage and dendritic cell (DC) infiltration in colitis and IBD patients compared to control subjects. […] The red and navy blue dots represent individual genes that pass the P value (≤0.05) and log 2 (Fold Change) (red, ≥1; navy blue, ≤−1) threshold. […] Forskolin, which increases the concentration of cAMP by activating adenylate cyclase, was used as a positive control. […] Colonic mucosa sections were stained with anti-CD68 to mark macrophages, and stained with NLRP3 and ASC for inflammasome. […] The P value was calculated using the Mann-Whitney U test, *, P<0.05****, P<0.0001. (D) Heat map showing the relative expression of colitis/IBD risk genes in myeloid cells."}, "[9]": {"test_system": "children with colitis or IBD", "experiment": "Children with colitis or IBD treated with methylprednisolone or anti-TNF-α antibody: colonoscopy and clinical status", "format": "in vivo, human"}, "[10]": {"details": "children, after vs before dipyridamole (n=7), FIG. 7H"}, "[11]": {"details": "dipyridamole 10 mg/kg twice a day vs DSS alone, 3% DSS"}, "[12]": {"details": "dipyridamole 10 mg/kg vs DSS alone"}}, "note": "“Also recorded” adds a separate entry of the source."}
{"compound": "OCCN(CCO)c1nc(N2CCCCC2)c2nc(N(CCO)CCO)nc(N3CCCCC3)c2n1", "note": "[dipyridamole]", "values": [{"measurement": "co-localized activated transcription factors ATF2 and CREB with CD39 in colonic mucosa", "setting": "activated ATF2 and CREB", "result": "increased; also recorded: enhanced"}, {"measurement": "TNF-α expression in colonic mucosa", "setting": "[1]; [10]", "result": "significantly reduced"}, {"measurement": "macrophage infiltration in colonic mucosa", "setting": "[1]; [10]", "result": "significantly reduced"}, {"measurement": "PDE4B", "setting": "[1]", "result": "inhibited"}, {"measurement": "expression of CD39 in CD8 and CD4 T cells and macrophages of colonic mucosa", "setting": "CD39; children, after vs before dipyridamole treatment", "result": "increase"}, {"measurement": "clinical, endoscopic and histological severity scores", "setting": "[2]; after vs before dipyridamole (FIG. 7E, Table 6)", "result": "significantly improved"}, {"measurement": "adverse reactions", "setting": "[2]; dipyridamole 3-5 mg/kg/day for 8 to 12 weeks", "result": "No obvious adverse reactions"}, {"measurement": "body weight", "setting": "[3]; [11]", "result": "significantly increased"}, {"measurement": "colon length", "setting": "[3]; [11]", "result": "significantly increased"}, {"measurement": "epithelial integrity and structure (HE stained colon sections)", "setting": "[3]; [12]", "result": "improved"}, {"measurement": "platelet aggregation in colonic mucosa (CD41+ clusters)", "setting": "[3]; [12]", "result": "reduced"}, {"measurement": "TNF-α expression in colon mucosa", "setting": "[3]; dipyridamole vs DSS alone, ELISA", "result": "reduced"}, {"measurement": "expression of TNF-α in monocytes and macrophages", "setting": "[4]", "result": "inhibit"}, {"measurement": "Severity score, Post-treatment, median", "setting": "children with colitis; after dipyridamole 3-5 mg/kg/day, treatment duration median 4 (2-12) weeks, 23 children, range 0-5, P < 0.0001 vs pre-treatment", "result": 1}, {"measurement": "Platelet counts, Post-treatment, median", "setting": "children with colitis; after dipyridamole 3-5 mg/kg/day, 23 children, range 217-497, reference range 140-440, P = 0.0001 vs pre-treatment", "result": "296 10^9/L"}, {"measurement": "clinical severity score after treatment", "setting": "children with colitis; after vs before dipyridamole (FIG. 3d)", "result": "significantly reduced"}, {"measurement": "colon lining (colonoscopy appearance)", "setting": "children with colitis; after vs before dipyridamole (FIG. 3d, 3e)", "result": "significantly improved"}, {"measurement": "Severity score, Pre-treatment, median", "setting": "children with colitis; baseline before dipyridamole, 23 children, range 4-14, scoring criteria of Table 4", "result": 9}, {"measurement": "Platelet counts, Pre-treatment, median", "setting": "children with colitis; baseline before dipyridamole, 23 children, range 235-790, reference range 140-440", "result": "370 10^9/L"}, {"measurement": "adverse reactions", "setting": "children with colitis; children with colitis, dipyridamole 3-5 mg/kg/day", "result": "no reports of adverse reactions"}, {"measurement": "CD39 expression in colonic epithelial CD4, CD8 and γδT cells", "setting": "[5]; dipyridamole 5 mg/kg or 50 mg/kg for 8 days, 2.5% DSS, dose-dependent manner", "result": "significantly increased"}, {"measurement": "expression of CD39 in CD4, CD8 and γδT cells", "setting": "[5]; intraperitoneal injection of dipyridamole at 50 mg/kg", "result": "significantly increased"}, {"measurement": "platelet aggregation in the colonic mucosa (CD41 clusters)", "setting": "[6]", "result": "significantly reduced"}, {"measurement": "CD39 expression during CD8+ T cell activation", "setting": "[7]", "result": "significantly increased"}, {"measurement": "cytoplasmic cAMP concentration", "setting": "[8]", "result": "significantly increase"}]}
{"compound": "C[C@H]1C[C@@H]2[C@H]([C@@H](O)C[C@@]3(C)[C@H]2CC[C@]3(O)C(=O)CO)[C@@]2(C)C=CC(=O)C=C12", "note": "[methylprednisolone]", "values": [{"measurement": "macrophage invasion in colonic mucosa", "setting": "[1]", "result": "no effect"}, {"measurement": "PDE4B", "setting": "[1]", "result": "no effect"}]}
{"compound": "anti-TNF-α: Anti-TNF-α drug (Infliximab), anti-TNF-α antibody biologic used to treat colitis and IBD", "values": [{"measurement": "macrophage invasion in colonic mucosa", "setting": "[1]", "result": "no effect"}, {"measurement": "expression of CD39 (CD39 IET) in colonic mucosa", "setting": "CD39; children with colitis or IBD, after vs before methylprednisolone (n=5) or anti-TNF-α (n=6), FIG. 6C", "result": "no effect"}, {"measurement": "appearance of the colon (colonoscopy)", "setting": "[9]; after vs before treatment, FIG. 6B", "result": "improved"}, {"measurement": "clinical status / clinical symptoms", "setting": "[9]; patients with inflammatory bowel disease, for methylprednisolone some patients only", "result": "improved"}]}
